{"source": "patent US11578130B2", "about": "“Regulatable chimeric antigen receptor” (Novartis AG, priority 2013, dated 2023)", "system": "Jurkat cells with NFAT-LUC reporter (JNL)", "experiment": "Activation of CD19 RCAR with extracellular FKBP/FRB switch (half and full switches) by RAD001, NFAT luciferase", "format": "cell-based", "settings": "extracellular half switch 1; 5 nM and 50 nM", "description": "The RCAR constructs were expressed in a Jurkat reporter cell line. Jurkat cells with NFAT-LUC reporter (JNL) were grown to the density of 0.5×10^6/ml in Jurkat cell growth media with puromycin at 0.5 μg/ml. For each transfection 2.5×10^6 cells were spin down at 100 g for 10 minutes. Two μg of DNA per RCAR construct were used per transfection. Amaxa Nucleofector solution V and supplement I was mixed and 100 μl was added into the tube with DNA construct. The mixture was then added to the cells and transferred to the electroporation cuvette. Electroporation was done under setting X-001 using Amaxa Nucleofector II Device. 0.5 ml of growth media was added immediately after electroporation and the mixture were transferred into 2 ml growth media in one well of the 6-well plate.\nAfter one hour, RAD001 compound was applied at various concentrations: 0 nM, 0.01 nM, 0.03 nM, 0.1 nM, 0.3 nM, 1 nM, 5 nM, and 50 nM. Tissue culture plate was coated with 5 μg/ml of anti anti-CD19 antibody or isotype control for 2 hrs, blocked with the blocking buffer (DPBS with 5% serum) for 1 hour. The transfected cells with or without Rad001 were resuspended and added to the target plate with 100 μl per well and incubated for 18 hrs. Luciferase One Glo reagent 100 μl was added per well. The samples were incubated for 5 min at 37° C. and then luminescence was measured using Envision plate reader."}
{"smiles": "CO[C@H]1C[C@@H]2CC[C@@H](C)[C@@](O)(O2)C(=O)C(=O)N2CCCC[C@H]2C(=O)O[C@H]([C@H](C)C[C@@H]2CC[C@@H](OCCO)[C@H](OC)C2)CC(=O)[C@H](C)/C=C(\\C)[C@@H](O)[C@@H](OC)C(=O)[C@H](C)C[C@H](C)/C=C/C=C/C=C/1C", "note": "[RAD001, (1R,9S,12S,15R,16E,18R,19R,21R,23S,24E,26E,28E,30S,32S,35R)-1,18-dihydroxy-12-{(1R)-2-[(1S,3R,4R)-4-(2-hydroxyethoxy)-3-methoxycyclohexyl]-1-methylethyl}-19,30-dimethoxy-15,17,21,23,29,35-hexamethyl-11,36-dioxa-4-aza-tricyclo[30.3.1.04,9]hexatriaconta-16,24,26,28-tetraene-2,3,10,14,20-pentaone]", "values": [{"measurement": "NFAT activity at the higher dosages of RAD001", "value": "no inhibition of activity was observed"}]}
